Source: patent US6878690B2, “Compounds and methods” (PharmAxis Pty Ltd., priority 2000, dated 2005)
Several values for one entry are separate records, joined by “and”; a condition that tells them apart may be missing. Equal entries are not always repeated.

Key:
[1] = test system: passively transferred EAE; assay: Passively transferred EAE induced with encephalitogenic MBP-specific T cell line (Example 23); format: in vivo, Lewis rats
Description: In order to study the effect of the agents of the present invention in vivo on a disease caused by T lymphocyte migration into a specific tissue, experiments were performed in the Lewis rat model of passively transferred EAE. Here, myelin basic protein (MBP)-specific T lymphocyte cell lines were generated from the draining lymph nodes of Lewis rats that had been immunised with MBP in Freund's complete adjuvant essentially according to the method of Ben-Nun et al. (1981) as described in Example 8. Thus, in this manner, donor T lymphocytes were generated from female 10 to 12 week old Lewis rats weighing 150 to 200 g. These rats were injected intradermally in a footpad of each hind foot with an emulsion of Guinea pig myelin basic protein (MBP; prepared according to the method of Deibler et al., 1972; incorporated herein by reference) in Freund's complete adjuvant (0.05 ml). The adjuvant emulsion was prepared by emulsifying equal volumes of a mixture of light mineral oil (Sigma) and normal saline containing Guinea pig myelin basic protein (0.5 mg/ml) and Mycobacterium butyricum (4 mg/ml; Difco). Thus, the total dose per rat was 50 micrograms of MBP and 400 micrograms of M. butyricum. Approximately 11 days following injection, the rats were euthanased and the draining lymph nodes (popliteal and inguinal) removed aseptically by blunt dissection and placed into mixed lymphocyte culture medium. This medium was prepared in the normal fashion from Dulbecco's Modified Eagle's Medium (DMEM; GIBCO, Grand Island, N.Y.) supplemented with glucose, folic acid, L-asparagine, sodium bicarbonate, L-glutamine, sodium pyruvate, HEPES, 2-mercaptoethanol (5×10^−5 M), penicillin, streptomycin, neomycin, and 2% fetal calf serum. A single cell suspension was prepared from the lymph nodes in the usual manner by gently pushing the nodes through a stainless steel screen. The cells were washed twice in the culture medium and following this procedure, any red blood cells were lysed in the usual manner by treating with a solution of ammonium chloride, EDTA and sodium hydrogen carbonate (pH 7.3) and the preparation strained (Falcon 2350 cell strainer). The cells were washed again in the lymphocyte culture medium. All cell preparative steps were performed on ice. These cells were cultured asceptically for 72 hours at 37° C. in a humidified atmosphere containing 7.5% carbon dioxide at a concentration of 5 million cells per milliliter in the presence of MBP (0.06 mg/ml). The cells were collected and the lymphoblasts were isolated by centrifugation on a Ficoll (Pharmacia, Uppsala, Sweden) gradient in an identical manner to that described by Ben Nun et al. (1981). The fraction containing ≧90% lymphoblasts was cultured and propagated in Eagle's medium supplemented with 15% of a concanavalin A-stimulated lymphocyte supernatant to provide growth factors, 10% fetal calf serum, nonessential amino acids (Bio-Lab, Jerusalem, Israel); sodium pyruvate, 2-mercapto ethanol and antibiotics without added antigen. The cells were plated in 100 mm petri dishes at a concentration of 0.2 million cells/ml and replated every 3 or 4 days. Prior to transfer into Lewis recipients, the cells were restimulated in the presence of MBP (0.01 mg/ml) and irradiated syngeneic thymocytes for 4 days.
These cells were highly encephalitogenic sine as few as 500,000 cells were capable of inducing disease when injected into naïve Lewis rats. Thus, in a typical experiment a group of 5 female Lewis rats, approximately 9 weeks old, weighing 110±15 grams were anesthetised with diethyl ether and implanted with mini-osmotic pumps (Alzet 2002, Alza Corp., Palo Alto Calif., USA) containing phosphoric acid mono-(6-propyl-3,4,5-trihydroxy-tetrahydro-pyran-2-ylmethyl) ester mono sodium salt dissolved in normal saline at a concentration that delivered the drug at a rate of 45 mg/kg/rat/day. […]

[2] = test system: passively transferred EAE; assay: Passively transferred EAE induced with concanavalin A stimulated spleen lymphoblasts (Example 24); format: in vivo, Lewis rats; parameters: key to Clinical score - Treated, Mean: 0 = asymptomatic to 5 = hind limb paralysis; details: 50 mg/kg/day subcutaneously; for Clinical score - Treated, Mean: group mean; for Clinical score - Treated: individual rats, scale 0 to 5, monosodium salt, 50 mg/kg/day
Description: In a similar type of experiment outlined in Example 20, and in order to study the effect of the agents of the present invention in vivo on a disease caused by T lymphocyte migration into a specific tissue, further experiments were performed in a Lewis rat model of passively transferred EAE. Here, myelin basic protein (MBP)-specific T lymphocytes were generated in spleens of Lewis rats that had been immunised with guinea pig MBP in Freund's complete adjuvant. Thus, in this manner donor T lymphocytes were generated from male 12-20 week old Lewis rats weighing 200 to 250 g. These rats were injected intradermally in a footpad of each hind foot with an emulsion of guinea pig myelin basic protein (MBP; prepared according to the method of Deibler et al., 1972; incorporated herein by reference) in Freund's complete adjuvant (0.1 ml). The adjuvant emulsion was prepared by emulsifying equal volumes of a mixture of 85% light mineral oil (0.8417 g/mL (Sigma)) plus 15% mannide monooleate (Sigma) containing Mycobacterium butyricum (4 mg/ml; Difco) and normal saline containing guinea pig myelin basic protein (0.25 mg/ml). Thus, the total dose per rat was 25 micrograms of MBP and 400 micrograms of M. butyricum. Ten days following injection, the rats were euthanased and the spleens removed aseptically by blunt dissection and placed into mixed lymphocyte culture medium. This medium was prepared in the normal fashion from Dulbecco's Modified Eagle's Medium (DMEM; GIBCO, Grand Island, N.Y.) supplemented with glucose (4 g/L), folic acid (6 mg/L), L-asparagine (36 mg/L), sodium bicarbonate (2 g/L), L-arginine (116 mg/L), L-glutamine (2 mM), sodium pyruvate (1 mM), HEPES (10 mM), 2-mercaptoethanol (5×10^−5 M), penicillin, streptomycin, neomycin, and 10% fetal calf serum. A single cell suspension was prepared from the spleens in the usual manner by gently pushing them through a stainless steel screen. The cells were washed twice and cultured asceptically for 72 hours at 37° C. in a humidified atmosphere containing 5% carbon dioxide at a concentration of 2 million cells per milliliter in the presence of concanavalin A (2 microgram/mL). The cells were collected and washed twice in Hanks balanced salt solution. Cells were resuspended in Hanks balanced salt solution and each recipient animal (10-12 weeks old female Lewis rats; 160-180 g) received 40-42.5 million lymphoblasts by lateral tail vein injection in a volume of 0.5 ml.
In a typical experiment 4-5 recipient rats were anesthetised with diethyl ether and implanted with mini-osmotic pumps (Alzet 2001, Alza Corp., Palo Alto Calif., USA) containing the test compound. A second group of 4 animals, the control group, under ether anesthesia, were implanted with Alzet 2001 pumps containing normal saline. Mini-osmotic pumps were implanted three days after cell transfer. Disease severity (clinical score) was scored on an arbitrary scale of severity ranging from 0 to 5 as follows: 0, asymptomatic; 1, flaccid distal half of tail; 2, entire tail flaccid; 3, ataxia, difficulty in righting reflex; 4, hind limb weakness; 5, hind limb paralysis. Mean maximum clinical scores were calculated and the disease index (DI) for each group was calculated as described in Example 20. The results of these experiments are outlined in Tables 6, 7 and 8.

[3] = test system: DTH response to 2,4-dinitrofluorobenzene (DNFB); assay: Delayed-type hypersensitivity (DTH) response to DNFB, ear swelling; format: in vivo, Balb/C mice
Text: In the present Example, a murine model of Type IV hypersensitivity or delayed-type hypersensitivity (DTH) response to cutaneous contact with the chemical hapten 2,4-dinitrofluorobenzene (DNFB) (Aldrich Chemical Company Inc, USA) was used as a model to measure the anti-inflammatory effects of compounds of the present invention. Specific pathogen-free 8-12 week old female Balb/C mice, weighing 19-21 g, were sensitised in a similar manner to that described by Klimuk et al., (Klimuk et al., 1999) by applying a solution of DNFB (0.5% in acetone:olive oil (4:1, v/v); 30 microliters,) onto a 2 cm^2 shaved area of the abdomen. After 7 days, the animals were anesthetised with diethyl ether and 8 microliters of DNFB (0.35% in acetone:olive oil (4:1, v/v) was applied to the dorsal and ventral surfaces of the right pinna. Prior to regaining consciousness, the mice were implanted intraperitoneally with Alzet 2001 mini-osmotic pumps (Alza Corp., Palo Alto Calif., USA) containing phosphoric acid mono-[6-(3-hexyloxy-propyl)-3,4,5-trihydroxy-tetrahydro-pyran-2-ylmethyl] ester, sodium salt in normal saline. The dose delivered was 50 mg/kg/day. Control animals for this group received saline delivered in identical mini-osmotic pumps. A second experimental group of mice received phosphoric acid mono-[3-(3,4,5-trihydroxy-6-phosphonooxymethyl-tetrahydro-pyran-2-yl)-propyl] ester disodium salt via one-week delivery Alzet 2001 mini-osmotic pumps implanted intraperitoneally. This compound was delivered at a dose of 40 mg/kg/day. Control animals for this group received saline delivered in identical mini-osmotic pumps. In a third experiment a separate group of mice received (3,4,5-trihydroxy-6-phosphonooxymethyl-tetrahydro-pyran-2-yl)-acetic acid disodium salt via one-week delivery Alzet 2001 mini-osmotic pumps that were placed intraperitoneally. This compound was delivered at 45 mg/kg/day. The control group for this experiment received identical mini-osmotic pumps containing normal saline. In a fourth experiment a group of mice received 3-phenyl-2-[2-(3,4,5-trihydroxy-6-phosphonooxymethyl-tetrahydro-pyran-2-yl)-acetylamino]-propionic acid monosodium salt via one-week delivery Alzet 2001 mini-osmotic pumps that were placed subcutaneously. This compound was delivered at 62 mg/kg/day. The control group for this experiment received identical mini-osmotic pumps containing normal saline. In a fifth experiment a group of mice received hexanoic acid 3-(3,4,5-trihydroxy-6-phosphonooxymethyl-tetrahydro-pyran-2-yl)-propyl ester sodium salt via one-week delivery Alzet 2001 mini-osmotic pumps that were placed subcutaneously. This compound was delivered at 40 mg/kg/day. The control group for this experiment received identical mini-osmotic pumps containing normal saline.
Twenty-four hours after challenge the mice were lightly anesthetised with diethyl ether and the thickness of the left and right pinnae measured (in millimeters) using a dial gauge micrometer (Interapid, Switzerland). Care was taken to measure only the outer two thirds of the ear. The increase in ear thickness initiated by the DTH response was determined by subtracting the measurement of the left ear (untreated) from the right ear (challenged).
In Table 4, values in the columns labeled Left and Right are measurements of ear thickness in millimeters of the control and challenged ears respectively.

CCCC1OC(COP(=O)([O-])O)C(O)C(O)C1O.[Na+] (stereo not drawn) [phosphoric acid mono-(6-propyl-3,4,5-trihydroxy-tetrahydro-pyran-2-ylmethyl) ester mono sodium salt]
drug-treated animals that developed disease ([1]; 45 mg/kg/rat/day, control group 5/5): 3/5 | lesions per section in the most affected animal ([1]; day 6 post lymphocyte transfer, histology): no more than 8 lesions per section | average lesions (per section) in spinal cord ([1]; day 6 post lymphocyte transfer, histology, control approximately 15 lesions/section): 3.5 lesions | Mean maximum clinical score ([1]; treated group, 45 mg/kg/rat/day, control group 2.0): 1.0 | disease index (DI) ([1]; treated group, 45 mg/kg/rat/day, control group DI 160): 40

CCCCCCOCCCC1OC(COP(=O)([O-])O)C(O)C(O)C1O.[Na+] (stereo not drawn) [phosphoric acid mono-[6-(3-hexyloxy-propyl)-3,4,5-trihydroxy-tetrahydro-pyran-2-ylmethyl] ester, monosodium salt]
Clinical score - Treated, Mean ([2]; day 5): 1 | Clinical score - Treated ([2]; day 5): 0.5 (2×) and 1 and 2 | Clinical score - Treated, Mean ([2]; day 6): 2.75 | Clinical score - Treated ([2]; day 6): 3 and 2 (2×) and 4 | Clinical score - Treated, Mean ([2]; day 7): 2.5 | Clinical score - Treated ([2]; day 7): 2 (3×) and 4 | Clinical score - Treated, Mean ([2]; day 8): 2.25 | Clinical score - Treated ([2]; day 8): 2 (3×) and 3 | Clinical score - Treated, Mean ([2]; day 9): 1.25 | Clinical score - Treated ([2]; day 9): 1 (2×) and 1.5 (2×) | Clinical score - Treated, Mean ([2]; day 10): 0.5 | Clinical score - Treated ([2]; day 10): 0 (2×) and 1 (2×) | Mean maximum clinical score ([2]; treated group, control 4.5): clinical score 3 | DI (disease index) ([2]; treated group, control DI 67.2): DI - 34.1 Mean maximum | Mean percentage decrease in ear swelling in treated animals ([3]; 50 mg/kg/day intraperitoneally, versus saline controls): Mean percentage decrease in ear swelling in treated animals: 36.7% | Mean Difference, Treated ([3]; group mean, 50 mg/kg/day intraperitoneally, saline control mean 0.098): 0.062 millimeters | Difference (right minus left ear), Treated ([3]; individual mice, 50 mg/kg/day, mini-osmotic pump intraperitoneally, 24 hours after challenge, monosodium salt): 0.03 millimeters and 0.05 millimeters (2×) and 0.08 millimeters and 0.1 millimeters | Right ear thickness, Treated ([3]; individual mice, challenged ear, 50 mg/kg/day, mini-osmotic pump intraperitoneally, 24 hours after challenge, monosodium salt): 0.25 millimeters (2×) and 0.26 millimeters and 0.3 millimeters and 0.32 millimeters | Left ear thickness, Treated ([3]; individual mice, control (unchallenged) ear, 50 mg/kg/day, mini-osmotic pump intraperitoneally, 24 hours after challenge, monosodium salt): 0.22 millimeters (3×) and 0.21 millimeters and 0.2 millimeters
